The values that follow come from patent publication US8394786B2, “Quinazoline derivatives” (Janssen Pharmaceutica N.V., priority 2003, dated 2013).

The test system of test [1] is SKOV3 cells. Description: Serum starved proliferation assay on the ovarian carcinoma SKOV3 cells (C3). The test is classed as cell-based. The note with it: Homo sapiens, SK-OV-3, 72 h, EGF stimulated (100 ng/ml, 72 hours, serum free) or 72 hours with compounds; MTT cell viability assay; read-out: SKOV3 cell (C3): pIC50 (converted). The essentials:
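SKOV3 cells grown 24 h in 10% FCS, then treated with compound under serum-free conditions (37 °C, 5% CO2) and stimulated 72 h with EGF at 100 ng/ml final; read-out by MTT viability. Alternative format: compound for 72 h after the same 24 h FCS step, also by MTT.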
(In general: Tetrazolium assays rely on reduction of a dye to a coloured formazan, in cell work by metabolically active cells.)

Test [2] concerns the target EGFR (Homo sapiens, UniProt P00533). Description: In vitro inhibition of EGFR, Flash Plate or glass-fiber filter technology (C2). Also noted: 0.5 μg EGFR-kinase domain/well. The test is classed as biochemical. The note with it: EGFR-kinase domain, 5.0 μM unlabeled ATP, read-out: Kinase activity.(C2): pIC50 (converted). The essentials:
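EGFR kinase domain (0.5 μg/well) phosphorylated poly(GT) with 5.0 μM ATP plus AT^33P, dose response 1·10^−6 to 1·10^−10 M. Flash Plate: biotin-poly(GT), Tris pH 8.0, 30° C, 60 min, scintillation counting. Filter: Tris pH 7.5 with MnCl2, 25° C, 10 min, 33P counted on glass-fiber filter by phosphorimaging.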

Sequence of EGFR (P00533 712-979 limits assumed): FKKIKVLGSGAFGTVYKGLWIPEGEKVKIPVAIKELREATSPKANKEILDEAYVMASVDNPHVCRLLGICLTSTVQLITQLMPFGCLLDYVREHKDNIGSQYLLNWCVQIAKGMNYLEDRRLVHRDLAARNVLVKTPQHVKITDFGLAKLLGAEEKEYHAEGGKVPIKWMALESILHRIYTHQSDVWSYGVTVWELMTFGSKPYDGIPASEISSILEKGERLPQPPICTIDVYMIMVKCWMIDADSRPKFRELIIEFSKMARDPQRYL

For `COc1cc2ncnc3c2cc1OCC(=O)NC(CO)C(=O)NCc1ccc(Cl)cc1N3` (centres unmarked) [Compound 129, 4,6-ethanediylidenepyrimido[4,5-b][6,1,9,12]benzoxatriazacyclopentadecine-9,12(8H,13H)-dione, 17-chloro-10,11,14,19-tetrahydro-11-(hydroxymethyl)-20-methoxy-], the IC50 is 3980 nM in test [1] and 1580 nM in test [2].

For `COc1cc2ncnc3c2cc1OCCCC(=O)NC(CO)C(=O)NCc1ccc(Cl)cc1N3` (centres unmarked) [Compound 130, 4,6-ethanediylidenepyrimido[4,5-b][6,1,11,14]benzoxatriazacycloheptadecine-11,14(8H,15H)-dione, 19-chloro-9,10,12,13,16,21-hexahydro-13-(hydroxymethyl)-22-methoxy-], the IC50 in test [1] is 126 nM; in test [2], 25.1 nM.

As for `COc1cc2ncnc3c2cc1OCCCC(=O)NC(C)C(=O)NCc1ccc(Cl)cc1N3` (centres unmarked) [Compound 131, 4,6-ethanediylidenepyrimido[4,5-b][6,1,11,14]benzoxatriazacycloheptadecine-11,14(8H,15H)-dione, 19-chloro-9,10,12,13,16,21-hexahydro-22-methoxy-13-methyl-], the values for the IC50 in test [1] and in test [2] were 100 nM and 25.1 nM, respectively.

Regarding `COc1cc2ncnc3c2cc1OCC(=O)N1CC(O)CC1C(=O)NCc1ccc(Cl)cc1N3` (centres unmarked) [Compound 133, 9,11-ethanediylidenepyrimido[4,5-b]pyrrolo[1,2-i][6,1,9,12]benzoxatriazacyclopentadecine-14,19(5H,13H)-dione, 3-chloro-16,17,18,18a,20,21-hexahydro-17-hydroxy-22-methoxy-], the IC50 in test [1] was 7940 nM; in test [2] it was 1580 nM.

Regarding `COc1cc2ncnc3c2cc1OCCCCC(=O)N1CCCC1C(=O)NCc1ccc(Cl)cc1N3` (centres unmarked) [Compound 134, 4,6-ethanediylidene-8H-pyrimido[4,5-b]pyrrolo[1,2-l][6,1,12,15]benzoxatriazacyclooctadecine-12,17(18H)-dione, 22-chloro-9,10,11,14,15,16,16a,19,24-nonahydro-25-methoxy-], the IC50 was 794 nM in test [1] and 398 nM in test [2].

With `COc1cc2ncnc3c2cc1OCC(=O)NC(C)(C)C(=O)NCCc1ccc(Cl)cc1N3` [Compound 135, 4,6-ethanediylidene-8H-pyrimido[4,5-b][6,1,9,12]benzoxatriazacyclohexadecine-9,12-dione, 18-chloro-10,11,13,14,15,20-hexahydro-21-methoxy-11,11-dimethyl-], the IC50 in test [1] is 1000 nM; in test [2], 3980 nM.

`COc1cc2ncnc3c2cc1OCCCCC(=O)NC(CC(C)C)C(=O)NCc1ccc(Cl)cc1N3` (centres unmarked) [Compound 136, 4,6-ethanediylidene-8H-pyrimido[4,5-b][6,1,12,15]benzoxatriazacyclooctadecine-12,15(16H)-dione, 20-chloro-9,10,11,13,14,17,22-heptahydro-23-methoxy-14-(2-methylpropyl)-]: the IC50 was 251 nM in test [1] and 631 nM in test [2].

As to `COc1cc2ncnc3c2cc1OCCCCC(=O)NC(C)(C)C(=O)NCc1ccc(Cl)cc1N3` [Compound 137, 4,6-ethanediylidene-8H-pyrimido[4,5-b][6,1,12,15]benzoxatriazacyclooctadecine-12,15(16H)-dione, 20-chloro-9,10,11,13,14,17,22-heptahydro-23-methoxy-14,14-dimethyl-], the IC50 in test [1] and in test [2] was 251 nM each time.

As for `COc1cc2ncnc3c2cc1OCCCCC(=O)NC(Cc1ccccc1)C(=O)NCc1ccc(Cl)cc1N3` (centres unmarked) [Compound 138, 4,6-ethanediylidene-8H-pyrimido[4,5-b][6,1,12,15]benzoxatriazacyclooctadecine-12,15(16H)-dione, 20-chloro-9,10,11,13,14,17,22-heptahydro-23-methoxy-14-(phenylmethyl)-], the IC50 in test [1] is 631 nM; in test [2], 2000 nM.

`COc1cc2ncnc3c2cc1OCC(=O)N1CCCC1C(=O)NCCc1ccc(Cl)cc1N3` (centres unmarked) [Compound 140, 1,21-ethanediylidene-5H-pyrimido[4,5-b]pyrrolo[1,2-i][6,1,9,12]benzoxatriazacyclohexadecine-13,18(19H)-dione, 7-chloro-10,11,12,13a,14,15,16-heptahydro-23-methoxy-]: the IC50 in test [1] and in test [2] was 200 nM throughout.

Take `COc1cc2ncnc3c2cc1OCC(=O)NC(CC(C)C)C(=O)NCCc1ccc(Cl)cc1N3` (centres unmarked) [Compound 141, 4,6-ethanediylidene-8H-pyrimido[4,5-b][6,1,9,12]benzoxatriazacyclohexadecine-9,12-dione, 18-chloro-10,11,13,14,15,20-hexahydro-21-methoxy-11-(2-methylpropyl)-]: the figures for the IC50 in test [1] and in test [2] were 1580 nM and 794 nM, respectively.

With `COc1cc2ncnc3c2cc1OCC(=O)NC(C(C)O)C(=O)NCCc1ccc(Cl)cc1N3` (centres unmarked) [Compound 142, 4,6-ethanediylidene-8H-pyrimido[4,5-b][6,1,9,12]benzoxatriazacyclohexadecine-9,12-dione, 18-chloro-10,11,13,14,15,20-hexahydro-11-(1-hydroxyethyl)-21-methoxy-], the IC50 in test [1] was 631 nM; in test [2] it was 100 nM.

Take `COc1cc2ncnc3c2cc1OCCCC(=O)NC(CC(C)C)C(=O)NCc1ccc(Cl)cc1N3` (centres unmarked) [Compound 143, 4,6-ethanediylidenepyrimido[4,5-b][6,1,11,14]benzoxatriazacycloheptadecine-11,14(8H,15H)-dione, 19-chloro-9,10,12,13,16,21-hexahydro-22-methoxy-13-(2-methylpropyl)-]: the IC50 in test [1] was 200 nM; in test [2], 501 nM.

Regarding `COc1cc2ncnc3c2cc1OCCCC(=O)NC(C)(C)C(=O)NCc1ccc(Cl)cc1N3` [Compound 144, 4,6-ethanediylidenepyrimido[4,5-b][6,1,11,14]benzoxatriazacycloheptadecine-11,14(8H,15H)-dione, 19-chloro-9,10,12,13,16,21-hexahydro-22-methoxy-13,13-dimethyl-], the IC50 in test [1] is 126 nM; in test [2], 158 nM.

Consider `COc1cc2ncnc3c2cc1OCCCC(=O)NC(Cc1ccccc1)C(=O)NCc1ccc(Cl)cc1N3` (centres unmarked) [Compound 145, 4,6-ethanediylidenepyrimido[4,5-b][6,1,11,14]benzoxatriazacycloheptadecine-11,14(8H,15H)-dione, 19-chloro-9,10,12,13,16,21-hexahydro-22-methoxy-13-(phenylmethyl)-], for which the IC50 in test [1] was 251 nM; in test [2], 200 nM.

On to `COc1cc2ncnc3c2cc1OCCCC(=O)NC(C(C)O)C(=O)NCc1ccc(Cl)cc1N3` (centres unmarked) [Compound 146, 4,6-ethanediylidenepyrimido[4,5-b][6,1,11,14]benzoxatriazacycloheptadecine-11,14(8H,15H)-dione, 19-chloro-9,10,12,13,16,21-hexahydro-13-(1-hydroxyethyl)-22-methoxy-], for which the IC50 was 631 nM in test [1] and 200 nM in test [2].

As to `COc1cc2ncnc3c2cc1OCCCCC(=O)NC(C(C)O)C(=O)NCc1ccc(Cl)cc1N3` (centres unmarked) [Compound 147, 4,6-ethanediylidene-8H-pyrimido[4,5-b][6,1,12,15]benzoxatriazacyclooctadecine-12,15(16H)-dione, 20-chloro-9,10,11,13,14,17,22-heptahydro-14-(1-hydroxyethyl)-23-methoxy-], the IC50 is 251 nM in test [1] and 126 nM in test [2].

With `COc1cc2ncnc3c2cc1OCC(=O)NC(CO)C(=O)NCCc1ccc(Cl)cc1N3` (centres unmarked) [Compound 148, 4,6-ethanediylidene-8H-pyrimido[4,5-b][6,1,9,12]benzoxatriazacyclohexadecine-9,12-dione, 18-chloro-10,11,13,14,15,20-hexahydro-11-(hydroxymethyl)-21-methoxy-], the IC50 in test [1] is 10000 nM; in test [2], 251 nM.

For the molecule `COc1cc2ncnc3c2cc1OCC(=O)N1CC(O)CC1C(=O)NCCc1ccc(Cl)cc1N3` (centres unmarked) [Compound 149, 1,21-ethanediylidene-5H-pyrimido[4,5-b]pyrrolo[1,2-i][6,1,9,12]benzoxatriazacyclohexadecine-13,18(19H)-dione, 7-chloro-10,11,12,13a,14,15,16-heptahydro-15-hydroxy-23-methoxy-], the IC50 in test [1] is 1580 nM; in test [2] it was 126 nM.

On to `COc1cc2ncnc3c2cc1OCC(=O)NCC(=O)NCc1ccc(Cl)cc1N3` [Compound 151, 4,6-ethenopyrimido[4,5-b][6,1,9,12]benzoxatriazacyclopentadecine-9,12(8H,13H)-dione, 17-chloro-10,11,14,19-tetrahydro-20-methoxy-], for which the IC50 is 10000 nM in test [1] and 3160 nM in test [2].

Turning to `COc1cc2ncnc3c2cc1OCC(=O)NCCC(=O)NCc1ccc(Cl)cc1N3` [Compound 152, 4,6-etheno-8H-pyrimido[4,5-b][6,1,9,13]benzoxatriazacyclohexadecine-9,13(10H,14H)-dione, 18-chloro-11,12,15,20-tetrahydro-21-methoxy-], the figures for the IC50 in test [1] and in test [2] were 10000 nM and 31.6 nM, respectively.

Regarding `COc1cc2ncnc3c2cc1OCCCC(=O)NCC(=O)NCc1ccc(Cl)cc1N3` [Compound 153, 4,6-ethenopyrimido[4,5-b][6,1,11,14]benzoxatriazacycloheptadecine-11,14(8H,15H)-dione, 19-chloro-9,10,12,13,16,21-hexahydro-22-methoxy-], the IC50 in test [1] was 794 nM; in test [2], 15.8 nM.
